{"source": "patent US8440710B2", "about": "“HSL inhibitors useful in the treatment of diabetes” (Hoffmann-La Roche Inc., priority 2009, dated 2013)"}
{"target": "T1, human HSL (Homo sapiens, UniProt Q05469)", "T1 construct": "generate a full length human HSL ORF with a 3′-His6 tag; made in house; host or cells: High 5 insect cells (baculovirus, pFast-BAC)", "T1 sequence (Q05469 1-1076)": "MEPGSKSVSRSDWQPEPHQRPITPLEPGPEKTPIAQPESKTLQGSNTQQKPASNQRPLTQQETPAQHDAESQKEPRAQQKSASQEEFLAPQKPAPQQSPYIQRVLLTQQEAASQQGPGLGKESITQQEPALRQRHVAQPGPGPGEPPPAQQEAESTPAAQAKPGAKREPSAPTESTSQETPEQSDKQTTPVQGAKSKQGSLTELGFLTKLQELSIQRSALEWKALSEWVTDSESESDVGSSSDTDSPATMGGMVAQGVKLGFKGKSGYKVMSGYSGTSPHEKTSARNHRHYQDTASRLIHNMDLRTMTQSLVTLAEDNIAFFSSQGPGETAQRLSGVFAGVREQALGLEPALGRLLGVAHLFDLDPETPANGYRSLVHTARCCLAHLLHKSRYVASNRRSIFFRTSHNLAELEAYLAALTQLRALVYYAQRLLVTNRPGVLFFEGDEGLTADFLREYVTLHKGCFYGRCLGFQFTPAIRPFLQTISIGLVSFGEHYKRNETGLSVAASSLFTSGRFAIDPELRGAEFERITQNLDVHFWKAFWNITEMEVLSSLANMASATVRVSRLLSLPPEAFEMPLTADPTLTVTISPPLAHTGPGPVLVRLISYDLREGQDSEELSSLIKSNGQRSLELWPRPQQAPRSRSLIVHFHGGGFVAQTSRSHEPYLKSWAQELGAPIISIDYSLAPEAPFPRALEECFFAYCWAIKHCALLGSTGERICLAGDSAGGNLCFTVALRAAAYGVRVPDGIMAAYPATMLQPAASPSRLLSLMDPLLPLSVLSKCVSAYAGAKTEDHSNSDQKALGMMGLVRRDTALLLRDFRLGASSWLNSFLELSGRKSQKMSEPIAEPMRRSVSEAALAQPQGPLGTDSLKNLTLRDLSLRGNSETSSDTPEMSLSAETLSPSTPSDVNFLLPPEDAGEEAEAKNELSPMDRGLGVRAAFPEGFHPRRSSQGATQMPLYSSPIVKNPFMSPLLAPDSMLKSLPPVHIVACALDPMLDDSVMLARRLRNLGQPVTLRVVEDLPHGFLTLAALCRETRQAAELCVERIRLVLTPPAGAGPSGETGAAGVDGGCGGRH", "test": "Human Hormone-Sensitive Lipase (HSL) enzyme inhibition assay (colorimetric, DMPT substrate)", "type": "biochemical", "conditions": "human full length HSL-His6, 2,3-dimercapto-1-propanol tributyrate substrate, 37° C. 20 minutes, absorbance at 405 nm; read-out: HSL hum IC50", "procedure,_shortened": "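Full-length human HSL with C-terminal His6, expressed in baculovirus-infected High 5 cells and Ni-NTA purified, was added (15 ug/ml stock) to 1.5 mM DMPT in 100 mM MOPS pH 7.2, 0.2 mg/ml fatty acid-free BSA containing compound. After 20 min at 37 °C, DTNB with SDS/Triton X-100 was added; A405 read after 15 min at RT.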", "units": {"IC50": "nM"}}
{"smiles": "O=C1N(c2ccc(OC(F)(F)F)cc2)CC[C@]12CC[C@H](Sc1ccccc1)CC2", "note": "[Example 52, (5α,8α)-8-Phenylsulfanyl-2-(4-trifluoromethoxy-phenyl)-2-aza-spiro[4.5]decan-1-one]", "IC50": 2270}
{"smiles": "CC(C)(C)COC[C@]1(O)CC[C@]2(CCN(c3ccc(OCC(F)(F)F)cc3)C2=O)CC1", "note": "[Example 274, (5α,8α)-8-(2,2-Dimethyl-propoxymethyl)-8-hydroxy-2-[4-(2,2,2-trifluoro-ethoxy)-phenyl]-2-aza-spiro[4.5]decan-1-one]", "IC50": 20}
{"smiles": "O=C(NCc1cnccn1)O[C@H]1CC[C@@]2(CCN(c3ccc(OC(F)(F)F)cc3)C2=O)CC1", "note": "[Example 28, (Pyrazin-2-ylmethyl)-carbamic acid [(5α,8β)-1-oxo-2-(4-trifluoromethoxy-phenyl)-2-aza-spiro[4.5]dec-8-yl]ester]", "IC50": 80}
{"smiles": "C[C@@H](Oc1ccc(N2CC[C@]3(CC[C@@](O)(COCC(F)(F)F)CC3)C2=O)cn1)C(F)(F)F", "note": "[Example 327, (5α,8α)-8-Hydroxy-8-(2,2,2-trifluoro-ethoxymethyl)-2-[6-((R)-2,2,2-trifluoro-1-methyl-ethoxy)-pyridin-3-yl]-2-aza-spiro[4.5]decan-1-one]", "IC50": 30}
{"smiles": "CC(C)Oc1ccc(N2CC[C@]3(CC[C@@](O)(c4cnn[nH]4)CC3)C2=O)cc1", "note": "[Example 374, (5α,8α)-8-hydroxy-2-(4-isopropoxyphenyl)-8-(1H-1,2,3-triazol-4-yl)-2-azaspiro[4.5]decan-1-one]", "IC50": 400}
{"smiles": "COc1ccc(N2CC[C@]3(CC[C@H](Oc4ccccc4)CC3)C2=O)cc1", "note": "[Example 46, (5α,8α)-2-(4-Methoxy-phenyl)-8-phenoxy-2-aza-spiro[4.5]decan-1-one]", "IC50": 4240}
{"smiles": "C[C@]1(O)CC[C@]2(CCN(c3ccc(OCC(F)(F)F)cc3)C2=O)CC1", "note": "[Example 86, (5α,8α)-8-Hydroxy-8-methyl-2-[4-(2,2,2-trifluoro-ethoxy)-phenyl]-2-aza-spiro[4.5]decan-1-one]", "IC50": 130}
{"smiles": "CC[C@]1(O)CC[C@]2(CCN(c3ccc(O[C@@H](C)C(F)(F)F)nc3)C2=O)CC1", "note": "[Example 171, (5α,8α)-8-Ethyl-8-hydroxy-2-[6-((S)-2,2,2-trifluoro-1-methyl-ethoxy)-pyridin-3-yl]-2-aza-spiro[4.5]decan-1-one]", "IC50": 30}
{"smiles": "CCOC[C@]1(O)CC[C@]2(CCN(c3ccc(O[C@H](C)C(F)(F)F)nc3)C2=O)CC1", "note": "[Example 311, (5α,8α)-8-Ethoxymethyl-8-hydroxy-2-[6-((R)-2,2,2-trifluoro-1-methyl-ethoxy)-pyridin-3-yl]-2-aza-spiro[4.5]decan-1-one]", "IC50": 30}
{"smiles": "O=C1N(c2ccc(OCC(F)(F)F)cc2)CC[C@]12CC[C@@](O)(COCC(F)F)CC2", "note": "[Example 244, (5α,8α)-8-(2,2-Difluoro-ethoxymethyl)-8-hydroxy-2-[4-(2,2,2-trifluoro-ethoxy)-phenyl]-2-aza-spiro[4.5]decan-1-one]", "IC50": 30}
{"smiles": "O=C1N(c2ccc(OCC(F)(F)F)nc2)CC[C@]12CC[C@@](O)(CCC(F)(F)F)CC2", "note": "[Example 166, (5α,8α)-8-Hydroxy-2-[6-(2,2,2-trifluoro-ethoxy)-pyridin-3-yl]-8-(3,3,3-trifluoro-propyl)-2-aza-spiro[4.5]decan-1-one]", "IC50": 40}
{"smiles": "C[C@H](Oc1ccc(N2CC[C@]3(CC[C@](O)(COCC(F)(F)F)CC3)C2=O)cc1)C(F)(F)F", "note": "[Example 282, (5α,8β)-8-Hydroxy-8-(2,2,2-trifluoro-ethoxymethyl)-2-[4-((S)-2,2,2-trifluoro-1-methyl-ethoxy)-phenyl]-2-aza-spiro[4.5]decan-1-one]", "IC50": 400}
{"smiles": "CCO[C@H]1CC[C@@]2(CCN(c3ccc(OC(F)(F)F)cc3)C2=O)CC1", "note": "[Example 24, (5α,8β)-8-Ethoxy-2-(4-trifluoromethoxy-phenyl)-2-aza-spiro[4.5]decan-1-one]", "IC50": 370}
{"smiles": "C[C@H](Oc1ccc(N2CC[C@]3(CC[C@@](O)(CS(=O)(=O)C(C)(C)C)CC3)C2=O)cn1)C(F)(F)F", "note": "[Example 325, (5α,8α)-8-Hydroxy-8-(2-methyl-propane-2-sulfonylmethyl)-2-[6-((S)-2,2,2-trifluoro-1-methyl-ethoxy)pyridin-3-yl]-2-aza-spiro[4.5]decan-1-one]", "IC50": 10}
{"smiles": "CCc1ccc(CCN2CC[C@]3(CC[C@H](O)CC3)C2=O)cc1", "note": "[Example 34, (5α,8α)-2-[2-(4-Ethyl-phenyl)-ethyl]-8-hydroxy-2-aza-spiro[4.5]decan-1-one]", "IC50": 800}
{"smiles": "C=CCC[C@]1(O)CC[C@]2(CCN(c3ccc(OC(F)(F)F)cc3)C2=O)CC1", "note": "[Example 64, (5α,8α)-8-But-3-enyl-8-hydroxy-2-(4-trifluoromethoxy-phenyl)-2-aza-spiro[4.5]decan-1-one]", "IC50": 30}
{"smiles": "CCC[C@]1(O)CC[C@]2(CCN(c3ccc(OCCC(F)(F)F)cc3)C2=O)CC1", "note": "[Example 99, (5α,8α)-8-Hydroxy-8-propyl-2-[4-(3,3,3-trifluoro-propoxy)-phenyl]-2-aza-spiro[4.5]decan-1-one]", "IC50": 30}
{"smiles": "O=C1N(c2ccc(OC(F)(F)F)cc2)CC[C@]12CC[C@](O)(C(F)(F)F)CC2", "note": "[Example 113, (5α,8β)-8-Hydroxy-2-(4-trifluoromethoxy-phenyl)-8-trifluoromethyl-2-aza-spiro[4.5]decan-1-one]", "IC50": 2180}
{"smiles": "COc1ccc(N2CC[C@]3(CC[C@@H](Oc4ccccc4)CC3)C2=O)cc1", "note": "[Example 48, (5α,8β)-2-(4-Methoxy-phenyl)-8-phenoxy-2-aza-spiro[4.5]decan-1-one]", "IC50": 1710}
{"smiles": "CC(C)OC[C@]1(O)CC[C@@]2(CCN(c3ccc(O[C@@H](C)C(F)(F)F)cc3)C2=O)CC1", "note": "[Example 307, (5α,8β)-8-Hydroxy-8-isopropoxymethyl-2-[4-((S)-2,2,2-trifluoro-1-methyl-ethoxy)-phenyl]-2-aza-spiro[4.5]decan-1-one]", "IC50": 200}
{"smiles": "CCOC[C@]1(O)CC[C@@]2(CCN(c3ccc(O[C@@H](C)C(F)(F)F)cc3)C2=O)CC1", "note": "[Example 250, (5α,8β)-8-Ethoxymethyl-8-hydroxy-2-[4-((S)-2,2,2-trifluoro-1-methyl-ethoxy)-phenyl]-2-aza-spiro[4.5]decan-1-one]", "IC50": 600}
{"smiles": "O=C1N(c2ccc(OCC(F)(F)F)cc2)CC[C@]12CC[C@](O)(COCC1CCC1)CC2", "note": "[Example 254, (5α,8β)-8-[(Cyclobutylmethoxy)methyl]-8-hydroxy-2-[4-(2,2,2-trifluoro-ethoxy)-phenyl]-2-aza-spiro[4.5]decan-1-one]", "IC50": 410}
{"smiles": "CS(=O)(=O)C[C@]1(O)CC[C@]2(CCN(c3ccc(OCC(F)(F)F)cc3)C2=O)CC1", "note": "[Example 304, (5α,8α)-8-Hydroxy-8-methanesulfonylmethyl-2-[4-(2,2,2-trifluoro-ethoxy)-phenyl]-2-aza-spiro[4.5]decan-1-one]", "IC50": 330}
{"smiles": "CCc1ccc(N2CC[C@]3(CC[C@@H](O)CC3)C2=O)cc1", "note": "[Example 5, (5α,8β)-2-(4-Ethyl-phenyl)-8-hydroxy-2-aza-spiro[4.5]decan-1-one]", "IC50": 2370}
{"smiles": "COCC#C[C@]1(O)CC[C@]2(CCN(c3ccc(OC(F)(F)F)cc3)C2=O)CC1", "note": "[Example 71, (5α,8α)-8-Hydroxy-8-(3-methoxy-prop-1-ynyl)-2-(4-trifluoromethoxy-phenyl)-2-aza-spiro[4.5]decan-1-one]", "IC50": 40}
{"smiles": "CC(C)COC[C@]1(O)CC[C@@]2(CCN(c3ccc(OCC(F)(F)F)cc3)C2=O)CC1", "note": "[Example 245, (5α,8β)-8-Hydroxy-8-isobutoxymethyl-2-[4-(2,2,2-trifluoro-ethoxy)-phenyl]-2-aza-spiro[4.5]decan-1-one]", "IC50": 280}
{"smiles": "COC[C@]1(O)CC[C@]2(CCN(c3ccc(C(C)(C)C)cc3)C2=O)CC1", "note": "[Example 346, (5α,8α)-2-(4-tert-Butyl-phenyl)-8-hydroxy-8-methoxymethyl-2-aza-spiro[4.5]decan-1-one]", "IC50": 20}
{"smiles": "C[C@H](Oc1ccc(N2CC[C@]3(CC[C@](O)(COCC(F)F)CC3)C2=O)cn1)C(F)(F)F", "note": "[Example 296, (5α,8β)-8-(2,2-Difluoro-ethoxymethyl)-8-hydroxy-2-[6-((S)-2,2,2-trifluoro-1-methyl-ethoxy)-pyridin-3-yl]-2-aza-spiro[4.5]decan-1-one]", "IC50": 550}
